Measured values as given in ChEMBL document CHEMBL1127074, “Novel hypotensive agents from Verbesina caracasana. 2. Synthesis and pharmacology of caracasanamide” (1993).
Where “and” joins values, the source holds several entries; their conditions need not be identical. Equal entries are not always repeated.

Columns and labels:
Rattus norvegicus [1] = test: Tested for the change in systolic blood pressure administered at 6400 ug/kg intravenously in anesthetized rats in presence of hexamethonium (5 mg/kg) (p<0.05); assay type: functional, Artery
Rattus norvegicus [2] = test: Tested for the change in systolic blood pressure administered at 800 ug/kg intravenously in anesthetized rats; assay type: functional, Artery
Rattus norvegicus [3] = test: Tested for the change in systolic blood pressure administered at 800 ug/kg intravenously in anesthetized rats in presence of propranolol (3 mg/kg); assay type: functional, Artery
Rattus norvegicus [4] = test: Maximum rate of rise of the left ventricular isovolumetric pressure administered at 4.12 uM/kg iv in anesthetized rats; assay type: functional, Heart left ventricle
Rattus norvegicus [5] = test: Tested for the change in diastolic blood pressure administered at 1600 ug/kg intravenously in anesthetized rats; assay type: functional, Artery
Rattus norvegicus [6] = test: Tested for the change in diastolic blood pressure administered at 1600 ug/kg iv in anesthetized rats in presence of hexamethonium (5 mg/kg) (p<0.05); assay type: functional, Artery
Rattus norvegicus [7] = test: Tested for the change in systolic blood pressure administered at 100 ug/kg intravenously in anesthetized rats; assay type: functional, Artery
Rattus norvegicus [8] = test: Tested for the change in systolic blood pressure administered at 100 ug/kg intravenously in anesthetized rats in presence of spinalization under vagotomy; assay type: functional, Artery
Rattus norvegicus [9] = test: Tested for the change in systolic blood pressure administered at 100 ug/kg iv in anesthetized rats in presence of spinalization under vagotomy; assay type: functional, Artery
Rattus norvegicus [10] = test: Tested for the change in systolic blood pressure administered at 1600 ug/kg intravenously in anesthetized rats; assay type: functional, Artery
Rattus norvegicus [11] = test: Tested for the change in systolic blood pressure administered at 1600 ug/kg intravenously in anesthetized rats in presence of propranolol (3 mg/kg); assay type: functional, Artery
Rattus norvegicus [12] = test: Tested for the change in systolic blood pressure administered at 200 ug/kg iv in anesthetized rats in presence of spinalization under vagotomy; assay type: functional, Artery
Rattus norvegicus [13] = test: Tested for the change in systolic blood pressure administered at 3200 ug/kg intravenously in anesthetized rats; assay type: functional, Artery
Rattus norvegicus [14] = test: Tested for the change in systolic blood pressure administered at 3200 ug/kg intravenously in anesthetized rats in presence of hexamethonium (5 mg/kg) (p<0.05); assay type: functional, Artery
Rattus norvegicus [15] = test: Tested for the change in systolic blood pressure administered at 3200 ug/kg intravenously in anesthetized rats in presence of phentolamine (2 mg/kg); assay type: functional, Artery
Rattus norvegicus [16] = test: Tested for the change in systolic blood pressure administered at 3200 ug/kg iv in anesthetized rats in presence of spinalization under vagotomy (p<0.05); assay type: functional, Artery
Rattus norvegicus [17] = test: Tested for the change in diastolic blood pressure administered at 200 ug/kg intravenously in anesthetized rats; assay type: functional, Artery
Rattus norvegicus [18] = test: Tested for the change in diastolic blood pressure administered at 3200 ug/kg iv in anesthetized rats in presence of phentolamine (2 mg/kg); assay type: functional, Artery
Rattus norvegicus [19] = test: Tested for the change in diastolic blood pressure administered at 3200 ug/kg iv in anesthetized rats in presence of propranolol (3 mg/kg); assay type: functional, Artery
Rattus norvegicus [20] = test: Tested for the change in diastolic blood pressure administered at 6400 ug/kg intravenously in anesthetized rats; assay type: functional, Artery
Rattus norvegicus [21] = test: Tested for the change in diastolic blood pressure administered at 6400 ug/kg iv in anesthetized rats in presence of hexamethonium (5 mg/kg) (p<0.05); assay type: functional, Artery
Rattus norvegicus [22] = test: Tested for the change in diastolic blood pressure administered at 800 ug/kg intravenously in anesthetized rats; assay type: functional, Artery
Rattus norvegicus [23] = test: Change in heart rate administered at 1600 ug/kg iv in anesthetized rats in presence of propranolol (3 mg/kg) (p<0.05); assay type: functional
Rattus norvegicus [24] = test: Change in heart rate administered at 200 ug/kg iv in anesthetized rats in presence of spinalization under vagotomy; assay type: functional
Rattus norvegicus [25] = test: Change in heart rate administered at 3200 ug/kg iv in anesthetized rats in presence of hexamethonium (5 mg/kg) (p<0.05); assay type: functional
Rattus norvegicus [26] = test: Change in heart rate administered at 1600 ug/kg iv in anesthetized rats in presence of hexamethonium (5 mg/kg) (p<0.05); assay type: functional
Rattus norvegicus [27] = test: Change in respiratory frequency administered at 3200 ug/kg iv in anesthetized rats; assay type: functional
Rattus norvegicus [28] = test: Change in respiratory frequency administered at 50 ug/kg iv in anesthetized rats; assay type: functional
Rattus norvegicus [29] = test: Change in respiratory frequency administered at 800 ug/kg iv in anesthetized rats; assay type: functional
Rattus norvegicus [30] = test: Change in heart rate administered at 3200 ug/kg iv in anesthetized rats in presence of spinalization under vagotomy (p<0.05); assay type: functional
Rattus norvegicus [31] = test: Change in heart rate administered at 800 ug/kg iv in anesthetized rats in presence of propranolol (3 mg/kg) (p<0.05); assay type: functional
Rattus norvegicus [32] = test: Change in heart rate administered at 100 ug/kg iv in anesthetized rats in presence of spinalization under vagotomy; assay type: functional
Rattus norvegicus [33] = test: Maximum rate of rise of the left ventricular isovolumetric pressure administered at 6400 ug/kg iv in anesthetized rats in presence of hexamethonium (5 mg/kg) (p<0.05); assay type: functional, Heart left ventricle
Rattus norvegicus [34] = test: Maximum rate of rise of the left ventricular isovolumetric pressure administered at 800 ug/kg iv in anesthetized rats in presence of hexamethonium (5 mg/kg) (p<0.05); assay type: functional, Heart left ventricle
Rattus norvegicus [35] = test: Maximum rate of rise of the left ventricular isovolumetric pressure administered at 800 ug/kg iv in anesthetized rats in presence of phentolamine (2 mg/kg); assay type: functional, Heart left ventricle
Rattus norvegicus [36] = test: Maximum rate of rise of the left ventricular isovolumetric pressure (dP/dt) administered at 50 ug/kg iv in anesthetized rats; assay type: functional, Heart left ventricle
Rattus norvegicus [37] = test: Maximum rate of rise of the left ventricular isovolumetric pressure (dP/dt) administered at 6400 ug/kg iv in anesthetized rats; assay type: functional, Heart left ventricle
Rattus norvegicus [38] = test: Maximum rate of rise of the left ventricular isovolumetric pressure (dP/dt) administered at 800 ug/kg iv in anesthetized rats; assay type: functional, Heart left ventricle
Rattus norvegicus [39] = test: Maximum rate of rise of the left ventricular isovolumetric pressure administered at 100 ug/kg iv in anesthetized rats in presence of spinalization under vagotomy; assay type: functional, Heart left ventricle
Rattus norvegicus [40] = test: Maximum rate of rise of the left ventricular isovolumetric pressure administered at 1600 ug/kg iv in anesthetized rats in presence of hexamethonium (5 mg/kg) (p<0.05); assay type: functional, Heart left ventricle
Rattus norvegicus [41] = test: Maximum rate of rise of the left ventricular isovolumetric pressure administered at 1600 ug/kg iv in anesthetized rats in presence of […] (3 mg/kg) (p<0.05); assay type: functional, Heart left ventricle
Rattus norvegicus [42] = test: Maximum rate of rise of the left ventricular isovolumetric pressure administered at 200 ug/kg iv in anesthetized rats in presence of spinalization under vagotomy; assay type: functional, Heart left ventricle

## COc1ccc(/C=C/C(=O)NCCCC/N=C(\N)NCC=C(C)C)cc1OC
Rattus norvegicus [1]
  Blood pressure: -13 mmHg
Rattus norvegicus [2]
  Blood pressure: -17 mmHg and -21%
Rattus norvegicus [3]
  Blood pressure: -18 mmHg
Rattus norvegicus [4]
  dP/dtmax: 3000 mmHg/s
Rattus norvegicus [5]
  Blood pressure: -18 mmHg and -29%
Rattus norvegicus [6]
  Blood pressure: -9 mmHg
Rattus norvegicus [7]
  Blood pressure: -6 mmHg and -8%
Rattus norvegicus [8]
  Blood pressure: 0 mmHg
Rattus norvegicus [9]
  Blood pressure: 0 mmHg
Rattus norvegicus [10]
  Blood pressure: -21 mmHg and -26%
Rattus norvegicus [11]
  Blood pressure: -25 mmHg
Rattus norvegicus [12]
  Blood pressure: 0 mmHg
Rattus norvegicus [13]
  Blood pressure: -25 mmHg and -29%
Rattus norvegicus [14]
  Blood pressure: -11 mmHg
Rattus norvegicus [15]
  Blood pressure: -37 mmHg
Rattus norvegicus [16]
  Blood pressure: -8 mmHg and -12 mmHg
Rattus norvegicus [17]
  Blood pressure: -10 mmHg and -16%
Rattus norvegicus [18]
  Blood pressure: -39 mmHg
Rattus norvegicus [19]
  Blood pressure: -26 mmHg
Rattus norvegicus [20]
  Blood pressure: -31 mmHg and -48%
Rattus norvegicus [21]
  Blood pressure: -20 mmHg
Rattus norvegicus [22]
  Blood pressure: -15 mmHg and -23%
Rattus norvegicus [23]
  Heart rate: 7 beats min-1
Rattus norvegicus [24]
  Heart rate: 0 beats min-1
Rattus norvegicus [25]
  Heart rate: 9 beats min-1
Rattus norvegicus [26]
  Heart rate: 10 beats min-1
Rattus norvegicus [27]
  Frequency: -41 beats min-1 and -39%
Rattus norvegicus [28]
  Frequency: 6 beats min-1 and 6%
Rattus norvegicus [29]
  Frequency: 25 beats min-1 and 24%
Rattus norvegicus [30]
  Heart rate: 3 beats min-1
Rattus norvegicus [31]
  Heart rate: 6 beats min-1
Rattus norvegicus [32]
  Heart rate: 0 beats min-1
Rattus norvegicus [33]
  dp/dt: 1447 mmHg s-1
Rattus norvegicus [34]
  dp/dt: 890 mmHg s-1
Rattus norvegicus [35]
  dp/dt: 2503 mmHg s-1
Rattus norvegicus [36]
  BP: 1%
  dp/dt: 52 mmHg s-1
Rattus norvegicus [37]
  BP: 58%
  dp/dt: 3074 mmHg s-1
Rattus norvegicus [38]
  BP: 41%
  dp/dt: 2140 mmHg s-1
Rattus norvegicus [39]
  dp/dt: 0 mmHg s-1
Rattus norvegicus [40]
  dp/dt: 1008 mmHg s-1
Rattus norvegicus [41]
  dp/dt: 520 mmHg s-1
Rattus norvegicus [42]
  dp/dt: 0 mmHg s-1
